Legend:
[1] = biological target: T1, prostanoide receptor subtype (mouse EP3α) (Mus musculus, UniProt P30557); experiment: Binding assay using expression cell of prostanoide receptor subtype ([3H]-PGE2 competition, CHO cell membrane fraction); conditions: [3H]-PGE2 2.5 nM; membrane fraction of CHO cells expressing mouse EP3α; Ki = IC50/(1+([C]/Kd)); read-out: dissociation constant Ki
T1 construct: expressed in transfected cells; host or cells: CHO cells (membrane fraction)
T1 sequence (P30557 1-365): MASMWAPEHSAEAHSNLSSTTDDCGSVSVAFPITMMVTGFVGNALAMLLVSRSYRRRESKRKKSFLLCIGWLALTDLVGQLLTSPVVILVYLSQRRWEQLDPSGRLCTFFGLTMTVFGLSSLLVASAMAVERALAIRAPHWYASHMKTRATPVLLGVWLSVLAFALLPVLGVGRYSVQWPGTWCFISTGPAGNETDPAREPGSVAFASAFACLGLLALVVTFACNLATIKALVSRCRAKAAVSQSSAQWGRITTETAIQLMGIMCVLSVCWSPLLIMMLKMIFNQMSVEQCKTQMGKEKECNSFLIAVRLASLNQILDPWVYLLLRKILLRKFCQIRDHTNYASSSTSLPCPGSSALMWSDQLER
Protocol: For example, in standard laboratory test, the effects of the compounds of the present invention were confirmed by inhibitory effect on binding PGE2 using expression cell of receptor.
(I) Binding Assay using Expression Cell of Prostanoide Receptor Subtype
The preparation of membrane fraction was carried out according to the method of Sugimoto et al (J. Biol. Chem. 267, 6463-6466 (1992)), using expression CHO cell of prostanoide receptor subtype (mouse EP3α).
The standard assay mixture contained membrane fraction (0.5 mg/ml), [^3H]-PGE2 in a final volume of […] was incubated for 1 hour at room temperature. The reaction was terminated by addition of 3 ml of ice-cold buffer. The mixture was rapidly filtered through a glass filter (GF/B). The radioactivity associated with the filter was measured by liquid scintillation counting.
Kd and Bmax values were determined from Scatchard plots (Ann. N.Y. Acad. Sci., 51, 660 (1949)). Non-specific binding was calculated as the bond in the presence of an excess ([…]) of unlabeled PGE2. In the experiment for competition of specific [^3H]-PGE2 binding by the compounds of the present invention, [^3H]-PGE2 was added at a concentration of 2.5 nM and the compounds of the present invention were at a concentration of 1 mM. Buffer: 10 mM potassium phosphate (pH6.0), 1 mM EDTA, 10 mM MgCl2, 0.1 M NaCl.
The dissociation constant Ki (μM) of each compound was calculated by the following equation.

Row | melting point [°C] | Ki [1] [nM] | Compound
1 |  | 2000 | O=C(O)COc1cccc2c(CCCSCC(O)c3ccccc3)cccc12 (stereo not shown) [3(8), 2-{5-[3-(2RS-Hydroxy-2-phenylethylthio)propyl]-1-naphthyloxy}acetic Acid]
2 | 186 to 190 |  | O=C(O)COc1cccc2c(CS(=O)(=O)CC(O)COc3ccccc3)cccc12 (stereo not shown) [3(7), 2-[5-(2RS-Hydroxy-3-phenoxypropylsulfonyl)methyl-1-naphthyloxy]acetic Acid]
3 |  | 48 | O=C(O)COc1cccc2c(CCSCC(O)COc3ccccc3)cccc12 (stereo not shown) [compound 3]
4 |  | 8.6 | O=C(O)COc1cccc2c(CCCS(=O)(=O)/C=C/c3ccccc3)cccc12 [5(1), 2-[5-(3-Styrylsulfonylpropyl)-1-naphthyloxy]acetic Acid]
5 |  | 80 | O=C(O)COc1cccc2c(CCC[S+]([O-])/C=C/c3ccccc3)cccc12 (stereo not shown) [compound 5]

Second part, the molecule before the results:

Row | Compound | melting point [°C] | Ki [1] [nM]
6 | O=C(O)COc1cccc2c(CSCC(O)COc3ccccc3)cccc12 (stereo not shown) [3(5), 2-[5-(2RS-Hydroxy-3-phenoxypropylthio)methyl-1-naphthyloxy]acetic Acid] | 105 to 107 | 
7 | O=C(O)COc1cccc2c(CCSCC(O)COc3ccccc3)cccc12 (stereo not drawn) [3(4), 2-{5-[2-(2S-Hydroxy-3-phenoxypropylthio)ethyl]-1-naphthyloxy}acetic Acid] | 114 to 115.5 | 
8 | O=C(O)COc1cccc2c(CCSC[C@H](O)COc3ccccc3)cccc12 [3(3), 2-{5-[2-(2R-Hydroxy-3-phenoxypropylthio)ethyl]-1-naphthyloxy}acetic Acid] | 114 to 115.5 | 
9 | O=C(O)COc1cccc2c(C[S+]([O-])CC(O)COc3ccccc3)cccc12 (stereo not shown) [3(6), 2-[5-(2RS-Hydroxy-3-phenoxypropylsulfinyl)methyl-1-naphthyloxy]acetic Acid] |  | 150
10 | O=C(O)COc1cccc2c(CCS(=O)(=O)CC(O)COc3ccccc3)cccc12 (stereo not shown) [3(2), 2-{5-[2-(2RS-Hydroxy-3-phenoxypropylsulfonyl)ethyl]-1-naphthyloxy}acetic Acid] |  | 9.9
